“And” between values parts separate entries of the source, which are not always exact repeats. Identical values can stand only once. Inconclusive results and toxic doses are left out. Rule for the calls: active = survival T/C of 150% or more; inactive = T/C below 125% in these data.
System: P388 leukemia ip, CD2F1 mice, survival T/C
Assay: NCI In Vivo Anticancer Drug Screen. Data for tumor model P388 Leukemia (intraperitoneal) in CD2F1 (CDF1) mice
Details: endpoint: median survival time, higher = longer survival
In short: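 Mice carrying the transplanted tumor received test compound or vehicle. Survival was recorded in each group, and the value is the treated-group measurement divided by that of the vehicle-treated control group.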

[1] = dose: 12.5 mg/kg/injection, schedule: Q01DX005 (ip), vehicle: saline with Tween-80
[2] = dose: 60.0 mg/kg/injection, schedule: Q01DX005 (ip), vehicle: Klucel (hydroxypropylcellulose) (HPC)
[3] = dose: 120.0 mg/kg/injection, schedule: Q01DX005 (ip), vehicle: Klucel (hydroxypropylcellulose) (HPC)
[4] = dose: 50.0 mg/kg/injection, schedule: Q01DX005 (ip), vehicle: Klucel (hydroxypropylcellulose) (HPC)
[5] = dose: 100.0 mg/kg/injection, schedule: Q01DX005 (ip), vehicle: Klucel (hydroxypropylcellulose) (HPC)
[6] = dose: 60.0 mg/kg/injection, schedule: Q01DX005 (ip), vehicle: saline with Tween-80
[7] = dose: 120.0 mg/kg/injection, schedule: Q01DX005 (ip), vehicle: saline with Tween-80
[8] = dose: 240.0 mg/kg/injection, schedule: Q01DX005 (ip), vehicle: saline with Tween-80
[9] = dose: 25.0 mg/kg/injection, schedule: Q01DX005 (ip), vehicle: saline with Tween-80
[10] = dose: 50.0 mg/kg/injection, schedule: Q01DX005 (ip), vehicle: saline with Tween-80
[11] = dose: 50.0 mg/kg/injection, schedule: Q01DX009 (ip), vehicle: saline with Tween-80
[12] = dose: 12.5 mg/kg/injection, schedule: Q01DX005 (ip), vehicle: Klucel (hydroxypropylcellulose) (HPC)
[13] = dose: 25.0 mg/kg/injection, schedule: Q01DX005 (ip), vehicle: Klucel (hydroxypropylcellulose) (HPC)

Measured: T/C

Cc1cc(OCCCC[N+](C)(C)Cc2ccc(Br)o2)c(C(C)C)cc1Cl
inactive: dose: 1.56 mg/kg/injection, schedule: Q01DX009 (ip), vehicle: saline 91 % of control | dose: 3.13 mg/kg/injection, schedule: Q01DX009 (ip), vehicle: saline 100 % of control | dose: 6.25 mg/kg/injection, schedule: Q01DX009 (ip), vehicle: saline 103 % of control and 105 % of control

CCN(CC)CCNc1ccc(COC(=O)OC)c2sc3ccccc3c(=O)c12
inactive: dose: 2.5 mg/kg/injection, schedule: Q01DX005 (ip), vehicle: saline with Tween-80 118 % of control | dose: 5.0 mg/kg/injection, schedule: Q01DX005 (ip), vehicle: saline with Tween-80 124 % of control | dose: 6.25 mg/kg/injection, schedule: Q01DX005 (ip), vehicle: saline with Tween-80 120 % of control | dose: 10.0 mg/kg/injection, schedule: Q01DX005 (ip), vehicle: saline with Tween-80 124 % of control | [1] 111 % of control | dose: 20.0 mg/kg/injection, schedule: Q01DX005 (ip), vehicle: saline with Tween-80 122 % of control

Cc1cc(-n2nnc3ccccc3c2=O)on1
inactive: [2] 114 % of control | [3] 101 % of control | dose: 240.0 mg/kg/injection, schedule: Q01DX005 (ip), vehicle: Klucel (hydroxypropylcellulose) (HPC) 119 % of control

COc1ccc2c(c1O)C13CCN(C)[C@@H](C2)C12CC2/C(=N/O)[C@H]3OC(C)=O (some centres undefined)
inactive: [4] 92 % of control | [5] 97 % of control

CC(C)(C)N(Cc1ccccc1)C(O)Cc1c(-c2ccccc2)c(-c2ccccc2)c2n1CCC2 (centres undefined)
inactive: [2] 89 % of control | [3] 88 % of control

CC1=CC(C)(C)Nc2ccc(Cc3ccc4c(c3)C(C)=CC(C)(C)N4)cc21
inactive: [6] 101 % of control | [7] 94 % of control | [8] 95 % of control

COCCCN=C(N)N
inactive: dose: 50.0 mg/kg/injection, schedule: Q04DX003 (ip), vehicle: saline 109 % of control | dose: 100.0 mg/kg/injection, schedule: Q04DX003 (ip), vehicle: saline 100 % of control | dose: 200.0 mg/kg/injection, schedule: Q04DX003 (ip), vehicle: saline 95 % of control

CCN1CC2(C)CCC(O)C34C2C(OC)C(O)(C13)C1(O)CC(OC)C2CC4(O)C1C2OC(=O)c1ccccc1 (centres undefined)
inactive: dose: 1.0 mg/kg/injection, schedule: Q01DX005 (ip), vehicle: saline + alcohol 102 % of control | dose: 2.0 mg/kg/injection, schedule: Q01DX005 (ip), vehicle: saline + alcohol 106 % of control | dose: 4.0 mg/kg/injection, schedule: Q01DX005 (ip), vehicle: saline + alcohol 108 % of control | dose: 8.0 mg/kg/injection, schedule: Q01DX005 (ip), vehicle: saline + alcohol 100 % of control

Cc1ccc(Nc2ncnc3c2c(=O)n(C)c(=O)n3C)cc1
inactive: dose: 30.0 mg/kg/injection, schedule: Q01DX005 (ip), vehicle: saline with Tween-80 88 % of control | [6] 90 % of control | [7] 90 % of control

CN(N=C1C(N)=NN=C1N)c1ccccc1
inactive: dose: 50.0 mg/kg/injection, schedule: Q04DX002 (ip), vehicle: saline with Tween-80 106 % of control | dose: 100.0 mg/kg/injection, schedule: Q04DX002 (ip), vehicle: saline with Tween-80 93 % of control | dose: 200.0 mg/kg/injection, schedule: Q04DX002 (ip), vehicle: saline with Tween-80 100 % of control

COc1ccc(C(C)c2cc(N=NC(N)=O)c(OC)cc2O)cc1 (centres undefined)
inactive: [1] 94 % of control | [9] 90 % of control | [10] 90 % of control

C[SiH]12(OC(C(F)(F)F)(C(F)(F)F)c3ccccc31)OC(C(F)(F)F)(C(F)(F)F)c1ccccc12
inactive: [9] 100 % of control | [10] 102 % of control

CC(=O)N(OC1OC(CO)C(O)C(O)C1O)c1ccc(Oc2ccc(Cl)cc2)cc1 (centres undefined)
inactive: [2] 104 % of control | [3] 92 % of control

Cc1coc2c3c(ccc12)OC(C)(C)C=C3
inactive: dose: 100.0 mg/kg/injection, schedule: Q01DX001 (ip), vehicle: saline with Tween-80 102 % of control | dose: 200.0 mg/kg/injection, schedule: Q01DX001 (ip), vehicle: saline with Tween-80 104 % of control

CC(Sc1ccccc1)C(=O)N1CCCC1 (centres undefined)
inactive: [11] 106 % of control | dose: 100.0 mg/kg/injection, schedule: Q01DX009 (ip), vehicle: saline with Tween-80 103 % of control | dose: 200.0 mg/kg/injection, schedule: Q01DX009 (ip), vehicle: saline with Tween-80 105 % of control

C(=C\c1cc2ccc(C3=NCCN3)cc2[nH]1)/c1ccc2cc(C3=NCCN3)[nH]c2c1
inactive: [12] 105 % of control | [13] 110 % of control | [4] 108 % of control and 110 % of control

CS(=O)CC1=NC(=N)N=C1CS(C)=O (centres undefined)
inactive: dose: 60.0 mg/kg/injection, schedule: Q01DX005 (ip), vehicle: saline 100 % of control | dose: 120.0 mg/kg/injection, schedule: Q01DX005 (ip), vehicle: saline 102 % of control | dose: 240.0 mg/kg/injection, schedule: Q01DX005 (ip), vehicle: saline 100 % of control

CN(C)c1ccc(-c2cccc[n+]2C)cc1
inactive: dose: 1.5 mg/kg/injection, schedule: Q01DX009 (ip), vehicle: saline 103 % of control | dose: 3.0 mg/kg/injection, schedule: Q01DX009 (ip), vehicle: saline 108 % of control | dose: 6.0 mg/kg/injection, schedule: Q01DX009 (ip), vehicle: saline 109 % of control

O=C(O)C1=C(O)CCN=C1
inactive: [12] 99 % of control | [13] 99 % of control | [4] 105 % of control

CCOC(=O)CNC(=O)C(CSSCC(NC(=O)OCc1ccccc1)C(=O)O)NC(=O)OCc1ccccc1 (centres undefined)
inactive: [4] 97 % of control | [5] 97 % of control | dose: 200.0 mg/kg/injection, schedule: Q01DX005 (ip), vehicle: Klucel (hydroxypropylcellulose) (HPC) 99 % of control

COc1cccc2c1C(=O)c1c(O)c3c(c(O)c1C2=O)CC(O)(C1(C)OCC(C)(C)CO1)CC3OC1CC(N)C(O)C(C)O1 (centres undefined)
inactive: dose: 3.13 mg/kg/injection, schedule: Q04DX003 (ip), vehicle: water 104 % of control | dose: 6.25 mg/kg/injection, schedule: Q04DX003 (ip), vehicle: water 106 % of control | dose: 12.5 mg/kg/injection, schedule: Q04DX003 (ip), vehicle: water 111 % of control | dose: 25.0 mg/kg/injection, schedule: Q04DX003 (ip), vehicle: water 104 % of control | dose: 50.0 mg/kg/injection, schedule: Q04DX003 (ip), vehicle: water 95 % of control

O=C1c2ccc3ccccc3c2CN2C(=O)CCC12 (centres undefined)
inactive: [6] 105 % of control | [7] 103 % of control | [8] 104 % of control

CC1C(=O)CCC2(C)C1CCC1C3CCC(O)C3(C)CCC12 (centres undefined)
inactive: dose: 12.5 mg/kg/injection, schedule: Q01DX009 (ip), vehicle: saline with Tween-80 95 % of control | dose: 25.0 mg/kg/injection, schedule: Q01DX009 (ip), vehicle: saline with Tween-80 109 % of control | [11] 95 % of control

Cc1nc2sccn2c1C=O
inactive: dose: 12.5 mg/kg/injection, schedule: Q01DX009 (ip), vehicle: Klucel (hydroxypropylcellulose) (HPC) 109 % of control | dose: 25.0 mg/kg/injection, schedule: Q01DX009 (ip), vehicle: Klucel (hydroxypropylcellulose) (HPC) 114 % of control | dose: 50.0 mg/kg/injection, schedule: Q01DX009 (ip), vehicle: Klucel (hydroxypropylcellulose) (HPC) 114 % of control | dose: 100.0 mg/kg/injection, schedule: Q01DX001 (ip), vehicle: Klucel (hydroxypropylcellulose) (HPC) 97 % of control

Reference: PubChem BioAssay AID330 (DTP/NCI, 2004)
